This note sets out measurements from US10988477B2 (Merck Patent GmbH, priority 2018, dated 2021).

The assay addresses GCN2 kinase (Homo sapiens, UniProt Q9P2K8). Kind of assay: GCN2 enzyme inhibition assay (Transcreener ADP2 fluorescence polarization). The assay is classed as biochemical. Conditions: Enzyme activity for compounds of Formula IV; Ki(app), 280 μM ATP, 25° C. The gist of the method: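 Inhibition of 4 nM GCN2 was measured with compound up to 8 μM final, ATP 280 μM and (RS)7 peptide 200 μM over a 1 h, 25 °C reaction. ADP FP readout; IC50 and Ki(app) calculated from percent inhibition.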

Chain of GCN2 kinase (Q9P2K8 whole entry): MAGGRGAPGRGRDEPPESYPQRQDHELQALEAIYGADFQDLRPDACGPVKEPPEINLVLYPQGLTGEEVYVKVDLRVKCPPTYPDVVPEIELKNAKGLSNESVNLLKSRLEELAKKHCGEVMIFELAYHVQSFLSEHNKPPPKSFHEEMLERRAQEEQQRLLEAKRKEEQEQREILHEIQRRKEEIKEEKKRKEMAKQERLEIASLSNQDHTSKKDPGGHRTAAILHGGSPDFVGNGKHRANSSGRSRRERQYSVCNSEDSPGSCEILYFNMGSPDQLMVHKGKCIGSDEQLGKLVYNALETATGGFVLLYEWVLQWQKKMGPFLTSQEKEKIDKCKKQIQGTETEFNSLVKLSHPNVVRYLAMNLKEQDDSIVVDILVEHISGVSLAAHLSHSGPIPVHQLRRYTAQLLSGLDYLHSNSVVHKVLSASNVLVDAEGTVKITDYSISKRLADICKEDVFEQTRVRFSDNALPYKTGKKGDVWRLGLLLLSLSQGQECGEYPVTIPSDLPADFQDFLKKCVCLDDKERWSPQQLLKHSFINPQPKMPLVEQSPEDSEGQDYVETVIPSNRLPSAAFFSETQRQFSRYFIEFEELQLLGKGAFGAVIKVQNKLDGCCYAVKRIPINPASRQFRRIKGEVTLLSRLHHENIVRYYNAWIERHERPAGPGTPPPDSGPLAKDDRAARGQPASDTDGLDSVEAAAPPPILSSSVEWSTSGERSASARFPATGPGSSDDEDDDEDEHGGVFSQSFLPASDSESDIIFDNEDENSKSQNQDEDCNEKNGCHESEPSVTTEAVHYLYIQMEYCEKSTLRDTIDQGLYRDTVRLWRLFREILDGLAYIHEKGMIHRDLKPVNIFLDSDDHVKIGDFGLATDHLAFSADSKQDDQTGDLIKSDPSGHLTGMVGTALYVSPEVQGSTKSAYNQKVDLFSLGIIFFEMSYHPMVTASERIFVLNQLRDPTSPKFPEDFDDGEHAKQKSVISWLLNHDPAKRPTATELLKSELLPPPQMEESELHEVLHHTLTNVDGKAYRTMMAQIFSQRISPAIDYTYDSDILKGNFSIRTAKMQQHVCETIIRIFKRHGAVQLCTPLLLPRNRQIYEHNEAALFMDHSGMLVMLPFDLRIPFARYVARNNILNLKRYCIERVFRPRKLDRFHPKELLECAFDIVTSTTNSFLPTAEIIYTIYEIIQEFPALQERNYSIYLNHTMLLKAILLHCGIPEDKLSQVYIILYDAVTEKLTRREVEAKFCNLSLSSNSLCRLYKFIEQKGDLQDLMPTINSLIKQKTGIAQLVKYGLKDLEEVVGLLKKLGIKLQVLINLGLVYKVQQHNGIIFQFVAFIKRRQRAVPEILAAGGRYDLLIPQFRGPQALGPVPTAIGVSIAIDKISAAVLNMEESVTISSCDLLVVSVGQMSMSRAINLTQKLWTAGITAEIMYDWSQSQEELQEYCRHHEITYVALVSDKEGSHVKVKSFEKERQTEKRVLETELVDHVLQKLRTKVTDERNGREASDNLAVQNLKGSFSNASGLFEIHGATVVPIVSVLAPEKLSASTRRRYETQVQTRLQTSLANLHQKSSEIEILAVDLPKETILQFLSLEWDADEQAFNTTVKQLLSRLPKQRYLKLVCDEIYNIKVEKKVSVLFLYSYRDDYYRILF

As for `CSCC1CCN(c2ccnc(-c3cnc4cnc(C(F)(F)F)cn34)n2)C1` (centres unmarked) [IV-594, 3-(4-(3-((Methylthio)methyl)pyrrolidin-1-yl)pyrimidin-2-yl)-6-(trifluoromethyl)imidazo[1,2-a]pyrazine], the Ki is 10 to 100 nM.

Take `NC(=O)C1CN(c2ccnc(-c3cnc4cnc(C(F)(F)F)cn34)n2)CCN1` (centres unmarked) [IV-595, 4-(2-(6-(Trifluoromethyl)imidazo[1,2-a]pyrazin-3-yl)pyrimidin-4-yl)piperazine-2-carboxamide]: the Ki lay in the range of 100 to 1000 nM.

As to `CN1CCN(c2ccnc(-c3cnc4cnc(C(F)(F)F)cn34)n2)CC1C(N)=O` (centres unmarked) [IV-596, 1-Methyl-4-(2-(6-(trifluoromethyl)imidazo[1,2-a]pyrazin-3-yl)pyrimidin-4-yl)piperazine-2-carboxamide], the Ki lay within 100 to 1000 nM.

Turning to `NC(=O)C1CCN(c2ccnc(-c3cnc4cnc(C(F)(F)F)cn34)n2)C1` (centres unmarked) [IV-598, 1-(2-(6-(Trifluoromethyl)imidazo[1,2-a]pyrazin-3-yl)pyrimidin-4-yl)pyrrolidine-3-carboxamide], the Ki was in the range of 100 to 1000 nM.

In the case of `NC(=O)C1CN(c2ccnc(-c3cnc4cnc(C(F)(F)F)cn34)n2)CCO1` (centres unmarked) [IV-599, 4-(2-(6-(Trifluoromethyl)imidazo[1,2-a]pyrazin-3-yl)pyrimidin-4-yl)morpholine-2-carboxamide], the Ki fell in the range of 100 to 1000 nM.

Consider `FC(F)(F)c1cn2c(-c3nccc(N4CCCC(n5ccnn5)C4)n3)cnc2cn1` (centres unmarked) [IV-600, 3-(4-(3-(1H-1,2,3-Triazol-1-yl)piperidin-1-yl)pyrimidin-2-yl)-6-(trifluoromethyl)imidazo[1,2-a]pyrazine], for which the Ki fell in the range of 100 to 1000 nM.

Regarding `O=C1CN(C2CCN(c3ccnc(-c4cnc5cnc(C(F)(F)F)cn45)n3)C2)CCN1` (centres unmarked) [IV-602, 4-(1-(2-(6-(Trifluoromethyl)imidazo[1,2-a]pyrazin-3-yl)pyrimidin-4-yl)pyrrolidin-3-yl)piperazin-2-one], the Ki fell in the range of 100 to 1000 nM.

`C[S+]([O-])CC1CCN(c2ccnc(-c3cnc4cnc(C(F)(F)F)cn34)n2)C1` (centres unmarked) [IV-603, 3-(4-(3-((Methylsulfinyl)methyl)pyrrolidin-1-yl)pyrimidin-2-yl)-6-(trifluoromethyl)imidazo[1,2-a]pyrazine] displayed a Ki of 100 to 1000 nM.

`CS(=O)(=O)CC1CCN(c2ccnc(-c3cnc4cnc(C(F)(F)F)cn34)n2)C1` (centres unmarked) [IV-604, 3-(4-(3-((methylsulfonyl)methyl)pyrrolidin-1-yl)pyrimidin-2-yl)-6-(trifluoromethyl)imidazo[1,2-a]pyrazine] registered a Ki of 100 to 1000 nM.

The molecule `NC(=O)CC1CCN(c2ccnc(-c3cnc4cnc(C(F)(F)F)cn34)n2)CC1` [IV-605, 2-(1-(2-(6-(Trifluoromethyl)imidazo[1,2-a]pyrazin-3-yl)pyrimidin-4-yl)piperidin-4-yl)acetamide] returned a Ki of 100 to 1000 nM.

`FC(F)(F)c1cn2c(-c3nccc(N4CCC(Nc5cn[nH]c5)C4)n3)cnc2cn1` (centres unmarked) [IV-606, N-(1-(2-(6-(Trifluoromethyl)imidazo[1,2-a]pyrazin-3-yl)pyrimidin-4-yl)pyrrolidin-3-yl)-1H-pyrazol-4-amine] displayed a Ki of 100 to 1000 nM.

As for `CS(=N)(=O)CC1CCN(c2ccnc(-c3cnc4cnc(C(F)(F)F)cn34)n2)C1` (centres unmarked) [IV-607, Imino(methyl)((1-(2-(6-(trifluoromethyl)imidazo[1,2-a]pyrazin-3-yl)pyrimidin-4-yl)pyrrolidin-3-yl)methyl)-λ^6-sulfanone], the Ki is 100 to 1000 nM.

As to `CC1CN(c2ccnc(-c3cnc4cnc(C(F)(F)F)cn34)n2)C(C)(C)C1` (centres unmarked) [IV-610, 6-(Trifluoromethyl)-3-(4-(2,2,4-trimethylpyrrolidin-1-yl)pyrimidin-2-yl)imidazo[1,2-a]pyrazine], the Ki fell in the range of 100 to 1000 nM.

`NC(=O)C1CCN(c2ccnc(-c3cnc4cnc(C(F)(F)F)cn34)n2)CC1` [IV-611, 1-(2-(6-(Trifluoromethyl)imidazo[1,2-a]pyrazin-3-yl)pyrimidin-4-yl)piperidine-4-carboxamide] came in with a Ki of 100 to 1000 nM.

`NC(=O)N1CCN(c2ccnc(-c3cnc4cnc(C(F)(F)F)cn34)n2)CC1` [IV-612, 4-(2-(6-(Trifluoromethyl)imidazo[1,2-a]pyrazin-3-yl)pyrimidin-4-yl)piperazine-1-carboxamide]: the Ki lay within 100 to 1000 nM.

Take `CC1COC(CO)CN1c1ccnc(-c2cnc3cnc(C(F)(F)F)cn23)n1` (centres unmarked) [IV-613, (5-Methyl-4-(2-(6-(trifluoromethyl)imidazo[1,2-a]pyrazin-3-yl)pyrimidin-4-yl)morpholin-2-yl)methanol]: the Ki lay in the range of 100 to 1000 nM.

On to `OCCCC1CCN(c2ccnc(-c3cnc4cnc(C(F)(F)F)cn34)n2)C1` (centres unmarked) [IV-616, 3-(1-(2-(6-(Trifluoromethyl)imidazo[1,2-a]pyrazin-3-yl)pyrimidin-4-yl)pyrrolidin-3-yl)propan-1-ol], for which the Ki lay within 10 to 100 nM.

Molecule `OCCN1CCN(c2ccnc(-c3cnc4cnc(C(F)(F)F)cn34)n2)CC1` [IV-617, 2-(4-(2-(6-(Trifluoromethyl)imidazo[1,2-a]pyrazin-3-yl)pyrimidin-4-yl)piperazin-1-yl)ethan-1-ol] came in with a Ki of 100 to 1000 nM.

The molecule `O=C(CO)N1CCN(c2ccnc(-c3cnc4cnc(C(F)(F)F)cn34)n2)CC1` [IV-618, 2-Hydroxy-1-(4-(2-(6-(trifluoromethyl)imidazo[1,2-a]pyrazin-3-yl)pyrimidin-4-yl)piperazin-1-yl)ethan-1-one] displayed a Ki of 100 to 1000 nM.

As to `CC(C)(O)CN1CCN(c2ccnc(-c3cnc4cnc(C(F)(F)F)cn34)n2)CC1` [IV-619, 2-Methyl-1-(4-(2-(6-(trifluoromethyl)imidazo[1,2-a]pyrazin-3-yl)pyrimidin-4-yl)piperazin-1-yl)propan-2-ol], the Ki fell in the range of 100 to 1000 nM.

`N#CCCN1CCN(c2ccnc(-c3cnc4cnc(C(F)(F)F)cn34)n2)CC1` [IV-620, 3-(4-(2-(6-(Trifluoromethyl)imidazo[1,2-a]pyrazin-3-yl)pyrimidin-4-yl)piperazin-1-yl)propanenitrile] displayed a Ki of 100 to 1000 nM.

In the case of `CNC(=O)C1CCN(c2ccnc(-c3cnc4cnc(C(F)(F)F)cn34)n2)C1` (centres unmarked) [IV-625, N-Methyl-1-(2-(6-(trifluoromethyl)imidazo[1,2-a]pyrazin-3-yl)pyrimidin-4-yl)pyrrolidine-3-carboxamide], the Ki fell in the range of 100 to 1000 nM.

As for `FC(F)(F)c1cn2c(-c3nccc(-n4ccc(C5CCCNC5)n4)n3)cnc2cn1` (centres unmarked) [IV-634, 3-(4-(3-(Piperidin-3-yl)-1H-pyrazol-1-yl)pyrimidin-2-yl)-6-(trifluoromethyl)imidazo[1,2-a]pyrazine], the Ki was in the range of 100 to 1000 nM.

In turn, `Cc1nc(C2CCN(c3ccnc(-c4cnc5cnc(C(F)(F)F)cn45)n3)C2)n[nH]1` (centres unmarked) [IV-641, 3-(4-(3-(5-Methyl-1H-1,2,4-triazol-3-yl)pyrrolidin-1-yl)pyrimidin-2-yl)-6-(trifluoromethyl)imidazo[1,2-a]pyrazine] came in with a Ki of 100 to 1000 nM.

Take `FC(F)(F)c1cn2c(-c3nccc(N4CCC(c5nnc[nH]5)C4)n3)cnc2cn1` (centres unmarked) [IV-642, 3-(4-(3-(4H-1,2,4-Triazol-3-yl)pyrrolidin-1-yl)pyrimidin-2-yl)-6-(trifluoromethyl)imidazo[1,2-a]pyrazine]: the Ki lay in the range of 100 to 1000 nM.

The molecule `CC1CC(C)C(C)N(c2ccnc(-c3cnc4cnc(C(F)(F)F)cn34)n2)C1` (centres unmarked) [IV-643, 6-(Trifluoromethyl)-3-(4-(2,3,5-trimethylpiperidin-1-yl)pyrimidin-2-yl)imidazo[1,2-a]pyrazine] had a Ki of 100 to 1000 nM.

`FC(F)(F)c1cn2c(-c3nccc(N4CCC(C5CCCC5)C4)n3)cnc2cn1` (centres unmarked) [IV-644, 3-(4-(3-Cyclopentylpyrrolidin-1-yl)pyrimidin-2-yl)-6-(trifluoromethyl)imidazo[1,2-a]pyrazine] had a Ki of 100 to 1000 nM.

Take `OC1CCN(C2CCN(c3ccnc(-c4cnc5cnc(C(F)(F)F)cn45)n3)C2)CC1` (centres unmarked) [IV-645, 1-(1-(2-(6-(Trifluoromethyl)imidazo[1,2-a]pyrazin-3-yl)pyrimidin-4-yl)pyrrolidin-3-yl)piperidin-4-ol]: the Ki lay within 100 to 1000 nM.

As for `FC(F)(F)c1cn2c(-c3nccc(N4CCC(c5cccnc5)C4)n3)cnc2cn1` (centres unmarked) [IV-646, 3-(4-(3-(Pyridin-3-yl)pyrrolidin-1-yl)pyrimidin-2-yl)-6-(trifluoromethyl)imidazo[1,2-a]pyrazine], the Ki was in the range of 10 to 100 nM.

In the case of `Cn1nc(C2CCN(c3ccnc(-c4cnc5cnc(C(F)(F)F)cn45)n3)C2)cc1O` (centres unmarked) [IV-647, 1-Methyl-3-(1-(2-(6-(trifluoromethyl)imidazo[1,2-a]pyrazin-3-yl)pyrimidin-4-yl)pyrrolidin-3-yl)-1H-pyrazol-5-ol], the Ki fell in the range of 100 to 1000 nM.

As for `FC(F)(F)c1cn2c(-c3nccc(N4CCCC(c5cc(C(F)(F)F)[nH]n5)C4)n3)cnc2cn1` (centres unmarked) [IV-653, 6-(Trifluoromethyl)-3-(4-(3-(5-(trifluoromethyl)-1H-pyrazol-3-yl)piperidin-1-yl)pyrimidin-2-yl)imidazo[1,2-a]pyrazine], the Ki was 100 to 1000 nM.

As for `Cn1cc(C(F)(F)F)nc1C1CCCN(c2ccnc(-c3cnc4cnc(C(F)(F)F)cn34)n2)C1` (centres unmarked) [IV-654, 3-(4-(3-(1-Methyl-4-(trifluoromethyl)-1H-imidazol-2-yl)piperidin-1-yl)pyrimidin-2-yl)-6-(trifluoromethyl)imidazo[1,2-a]pyrazine], the Ki fell in the range of 100 to 1000 nM.

In the case of `Cn1nccc1C1CCCN(c2ccnc(-c3cnc4cnc(C(F)(F)F)cn34)n2)C1` (centres unmarked) [IV-655, 3-(4-(3-(1-Methyl-1H-pyrazol-5-yl)piperidin-1-yl)pyrimidin-2-yl)-6-(trifluoromethyl)imidazo[1,2-a]pyrazine], the Ki fell in the range of 100 to 1000 nM.

`FC(F)(F)c1cn2c(-c3nccc(N4CCCC(c5nnco5)C4)n3)cnc2cn1` (centres unmarked) [IV-656, 2-(1-(2-(6-(Trifluoromethyl)imidazo[1,2-a]pyrazin-3-yl)pyrimidin-4-yl)piperidin-3-yl)-1,3,4-oxadiazole] showed a Ki of 100 to 1000 nM.

As for `Cc1c[nH]nc1C1CN(c2ccnc(-c3cnc4cnc(C(F)(F)F)cn34)n2)CCO1` (centres unmarked) [IV-657, 2-(4-Methyl-1H-pyrazol-3-yl)-4-(2-(6-(trifluoromethyl)imidazo[1,2-a]pyrazin-3-yl)pyrimidin-4-yl)morpholine], the Ki was in the range of 100 to 1000 nM.
